Marks after values point to notes of the source that are not given here.
Legend:
Glutathione Peroxidase = assay: Glutathione peroxidase activity in Mpv17 −/− cells (LUSVX) grown in presence of MnTBAP or acivicin; assay type: cell-based, mouse
Excerpt: (§1) Kidneys from background mice (CFW×Balb/c) and transgenic homozygous Mpv17−/− mice (H. Weiher, T. Noda, D. A. Gray, A. H. Sharpe and R. Jaenisch (1990), Cell, 62, pp. 425434) were obtained at an age of 7 to 9 months and frozen in liquid nitrogen. LUSVX cells (SV40 immortalised fibroblasts from the lungs of Mpv17−/− mice), and NIX1 5 cells (Mpv+/+ cells derived from LUSVX cells by stable transfection of an expression construct for the human Mpv17 cDNA) (A. Reuter. A. Nestl, R. M. Zwacka, J. Tuckermann, R. Waldherr, E. M. Wagner, M. Hoyhtya, A. M. Meyer zum Gottesberge, P. Angel and H. Weiher (1998), Molecular Biology of the Cell, 9, pp. 1675-1682) were grown in DMEM including 10% fetal calf serum (FCS) and 1 μg/ml puromycin (NIX15 cultures) at 6.5% CO2 Cells were harvested by trypsinisation and each 5×10^6 cells were washed in 1.5 ml of phosphate-buffered saline (PBS) before freezing the pellet in liquid nitrogen. Where indicated, Mn(III)tetrakis(4-benzoic acid)porphyrin (MnTBAP), final concentration 10 μM (Y. Noda, M. Kohno, A. Mori and L. Packer (1999), Methods in Enzymology, 299, pp. 28-34) (Calbiochem, Schwalbach, FRG), or the γ-GT inhibitor acivicin (AT-125), final concentration 50 μM (Sigma, Deisenhofen, FRG) were added in DMEM/10% FCS 18 h before harvesting the cells. Kidneys and cells were stored frozen at −80° C.
Cell fractions were prepared by differential centrifugation from 20% tissue and cell homogenates (w/v) in 10 mM potassium phosphate buffer, pH 7.0, containing 0.25 M sucrose, 150 mM potassium chloride, 1 mM EDTA, 2 mM dithiothreitol, and 50 μM phenylmethylsulfonyl fluoride. Enzyme activities were determined at 25° C.: catalase in the 25,000×g (10 min) pellet H. E. Aebi (1983), In Methods of Enzymatic Analysis (ed. H. U. Bergmeyer), Verlag Chemie, Weinheim, pp. 273-276); glutathione peroxidase (GPx) (R. A. Lawrence and R. F. Burk (1976), Biochemical Biophysical Research Communications, 71, pp. 952-958), GSSG reductase (Goldberg, D. M. S. R. F. (1983) In Methods of Enzymatic Analysis (ed. H. U. Bergmeyer) Verlag Chemie, Weinheim, pp. 258-265), glutathione transferase (GST) with 1-chloro-2,4-dinitrobenzene (CDNB) W. H. Habig, M. J. Pabst and W. B. Jakoby (1974), Journal Biological Chemistry, 249, pp. 7130-7139, and superoxide dismutase (SOD) (S. Marklund and G. Marklund (1974), European Journal of Biochemistry, 47, pp. 469-474) in the 105,000×g (45 min) supernatant; γ-glutamyl transpeptidase (γ-GT) ) (S. Marklund and G. Marklund (1974), European Journal of Biochemistry, 47, pp. 469-474) in the resuspended 105,000×g pellet containing 1% Triton X-100. Protein was measured by the method of Bradford using bovine serum albumin as standard (M. M. Bradford (1976), Analytical Biochemistry, 72, pp. 248-254).

[1] = molecular target: T1, γ-Glutamyl Transpeptidase (Mus musculus, UniProt Q60928); assay: γ-glutamyl transpeptidase activity in Mpv17 −/− cells (LUSVX) grown in presence of MnTBAP or acivicin; assay type: cell-based
T1 construct: in the resuspended 105,000×g pellet containing 1% Triton X-100; endogenous in cells; host or cells: LUSVX cells (SV40-immortalised lung fibroblasts from Mpv17−/− mice)
Excerpt: as §1
Cell fractions were prepared by differential centrifugation from 20% tissue and cell homogenates (w/v) in 10 mM potassium phosphate buffer, pH 7.0, containing 0.25 M sucrose, 150 mM potassium chloride, 1 mM EDTA, 2 mM dithiothreitol, and 50 μM phenylmethylsulfonyl fluoride. […] Protein was measured by the method of Bradford using bovine serum albumin as standard (M. M. Bradford (1976), Analytical Biochemistry, 72, pp. 248-254).

pGPx mRNA = pGPx mRNA level by quantitative RT-PCR in Mpv17−/− cells; assay type: cell-based, mouse; conditions: Mpv17−/− cells with acivicin (γ-GT inhibition), FIG. 2B; β-actin reference
Excerpt: (§2) Kidneys from background mice (CFW×Balb/c) and transgenic homozygous Mpv17-/- mice ([…]. Noda, D. A. Gray, A. H. Sharpe and R. Jaenisch (1990), Cell, 62, pp. 425434) were obtained at an age of 7 to 9 months and frozen in liquid nitrogen. LUSVX cells (SV40 immortalised fibroblasts from the lungs of Mpv17-/- mice), and NIX1 5 cells (Mpv+/+ cells derived from LUSVX cells by stable transfection of an expression construct for the human Mpv17 cDNA) (A. Reuter. […]. Tuckermann, […]. Wagner, […]. Meyer zum Gottesberge, P. Angel and […] (1998), Molecular Biology of the Cell, 9, pp. 1675-1682) were grown in DMEM including 10% fetal calf serum (FCS) and 1 μg/ml puromycin (NIX15 cultures) at 6.5% CO2 Cells were harvested by trypsinisation and each 5×10^6 cells were washed in 1.5 ml of phosphate-buffered saline (PBS) before freezing the pellet in liquid nitrogen. […] Noda, M. Kohno, A. Mori and L. […] Kidneys and cells were stored frozen at -80° C. mRNA levels were also measured. In particular, levels of mRNA were determined by quantitative RT-PCR. […] Amplified mRNA was separated on 1.5% agarose gels in Tris borate buffer (F. M. Ausubel (1995) Short protocols in molecular biology: a compendium of methods from current protocols in molecular biology. Wiley Press, New York) visualized with vista green (Amersham, Freiburg, FRG) and quantified with a FLA2000 Imager (FUJI).

γ-GT = molecular target: T2, γ-GT (Rattus norvegicus, UniProt P07314); conditions: short-term ischemia of rat kidney; Cutrin et al. 2000; cited from earlier work
T2 construct: oxidation damage during short-term ischemia of rat kidney

SOD mRNA = SOD mRNA levels by quantitative RT-PCR in Mpv17−/− cells; assay type: cell-based, mouse; conditions: Mpv17−/− cells with acivicin (γ-GT inhibition), FIG. 2B; β-actin reference
Excerpt: as §2

[2] = Mpv17−/− cells (LUSVX) grown in the presence of MnTBAP
[3] = LUSVX cells, MnTBAP 10 μM or acivicin 50 μM added 18 h before harvesting, means ± SEM (n = 3)

T1 sequence (Q60928 1-379 limits assumed): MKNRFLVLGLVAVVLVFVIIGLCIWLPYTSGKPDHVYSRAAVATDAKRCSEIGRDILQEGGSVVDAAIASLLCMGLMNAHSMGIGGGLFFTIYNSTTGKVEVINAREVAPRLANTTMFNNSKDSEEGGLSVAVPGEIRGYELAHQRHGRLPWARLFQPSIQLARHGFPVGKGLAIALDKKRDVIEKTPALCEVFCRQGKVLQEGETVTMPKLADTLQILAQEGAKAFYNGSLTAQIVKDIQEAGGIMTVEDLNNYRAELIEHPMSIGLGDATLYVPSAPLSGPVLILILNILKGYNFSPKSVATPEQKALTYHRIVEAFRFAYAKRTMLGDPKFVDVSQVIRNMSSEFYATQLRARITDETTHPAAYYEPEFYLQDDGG
T1 sequence (Q60928 380-568 limits assumed): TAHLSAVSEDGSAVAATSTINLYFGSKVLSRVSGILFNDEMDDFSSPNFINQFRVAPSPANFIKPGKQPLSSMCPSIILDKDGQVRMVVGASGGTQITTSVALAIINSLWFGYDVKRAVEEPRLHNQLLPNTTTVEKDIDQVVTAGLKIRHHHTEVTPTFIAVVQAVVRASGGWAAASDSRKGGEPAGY
T2 sequence (P07314 1-379 limits assumed): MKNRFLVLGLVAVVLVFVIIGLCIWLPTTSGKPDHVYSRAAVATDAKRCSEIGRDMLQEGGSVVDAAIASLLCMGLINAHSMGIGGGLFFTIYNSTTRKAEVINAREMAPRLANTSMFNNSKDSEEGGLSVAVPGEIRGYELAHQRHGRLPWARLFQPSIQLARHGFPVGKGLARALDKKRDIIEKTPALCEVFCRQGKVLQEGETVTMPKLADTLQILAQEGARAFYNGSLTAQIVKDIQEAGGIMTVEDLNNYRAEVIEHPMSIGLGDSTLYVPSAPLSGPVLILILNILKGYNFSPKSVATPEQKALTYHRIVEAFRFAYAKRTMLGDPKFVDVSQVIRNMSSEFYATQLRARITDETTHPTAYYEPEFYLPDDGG
T2 sequence (P07314 380-568 limits assumed): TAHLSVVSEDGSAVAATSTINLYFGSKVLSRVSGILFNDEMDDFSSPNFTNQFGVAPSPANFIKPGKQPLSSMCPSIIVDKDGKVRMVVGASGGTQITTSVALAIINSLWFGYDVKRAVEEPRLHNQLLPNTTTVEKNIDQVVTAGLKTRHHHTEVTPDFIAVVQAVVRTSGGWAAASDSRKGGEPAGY

| Compound | Glutathione Peroxidase activity, % of controls (Glutathione Peroxidase; LUSVX cells, MnTBAP 10 μM or acivicin 50 μM, 18 h, relative to untreated LUSVX) | change of GPx activity (in words) (Glutathione Peroxidase; [2]) | γ-Glutamyl Transpeptidase activity [1, 3] | γ-Glutamyl Transpeptidase activity, % of controls ([1]; LUSVX cells, MnTBAP 10 μM, 18 h, relative to untreated LUSVX) | change of γ-GT activity (in words) [1, 2] | pGPx mRNA level (pGPx mRNA) | Glutathione Peroxidase activity (Glutathione Peroxidase; [3]) | increase of GPx activity (Glutathione Peroxidase; Mpv17−/− cells grown in the presence of acivicin) | activity at 50 µM (Glutathione Peroxidase; Mus musculus, LUSVX cells, MnTBAP 10 μM or acivicin 50 μM, 18 h, relative to untreated LUSVX, read-out: Glutathione Peroxidase activity, % of controls) | oxidation damage caused by γ-GT upregulation (γ-GT) | SOD mRNA levels (SOD mRNA) |
| --- | --- | --- | --- | --- | --- | --- | --- | --- | --- | --- | --- |
| O=C(O)c1ccc(-c2c3nc(c(-c4ccc(C(=O)O)cc4)c4ccc([n-]4)c(-c4ccc(C(=O)O)cc4)c4nc(c(-c5ccc(C(=O)O)cc5)c5ccc2[n-]5)C=C4)C=C3)cc1.[Mn+3] [MnTBAP, Mn(III)tetrakis(4-benzoic acid)porphyrin] | (104%)^a) | Neither γ-GT nor GPx activities were changed significantly | 0.94 ± 0.03 nmol/min per mg of protein | (95%) | Neither γ-GT nor GPx activities were changed significantly |  |  |  |  |  |  |
| N[C@H](C(=O)O)[C@@H]1CC(Cl)=NO1 [acivicin] |  |  |  |  |  | significant increase | 53.5 ± 2.0 nmol/min per mg of protein | about 1.6 fold | 162% | inhibitable | significant increase |

From US20040115284A1, “Use of gamma-GT inhibitors for the treatment of degenerative diseases” (priority 2001, published 2004)
